According to ChEMBL document CHEMBL4371047, “Effect of α-Methoxy Substitution on the Anti-HIV Activity of Dihydropyrimidin-4(3 H)-ones” (J Med Chem, 2019):
pEC50: −log10 of the molar value.

Legend:
[1] = molecular target: Human immunodeficiency virus type 1 reverse transcriptase (Human immunodeficiency virus 1) (UniProt Q72547)
Description: Inhibition of recombinant wild type HIV-1 His-tagged reverse transcriptase p66/p51 expressed in Escherichia coli assessed as reduction in [3H]dTTP incorporation using poly(rA)/oligo(dT) as template/primer after 20 mins by scintillation counting analysis

[2] = system: Human immunodeficiency virus 1; assay: Antiviral activity against HIV 1 harboring reverse transcriptase Y181C mutant infected in human MT4 cells assessed as inhibition of virus-induced cytopathic effect after 5 days by MTT assay; format: functional, organism-based; details: Human immunodeficiency virus 1, MT4, 120 h
[3] = system: Human immunodeficiency virus 1; assay: Antiviral activity against wild type HIV 1 NL4-3 infected in human MT4 cells assessed as inhibition of virus-induced cytopathic effect after 5 days by MTT assay; format: functional, organism-based; details: Human immunodeficiency virus 1, NL4-3, MT4, 120 h
[4] = system: Human immunodeficiency virus 1; assay: Antiviral activity against HIV-1 harboring reverse transcriptase Y188L mutant infected in human MT4 cells assessed as inhibition of virus-induced cytopathic effect after 5 days by MTT assay; format: functional, organism-based; details: Human immunodeficiency virus 1, MT4, 120 h
[5] = Cytotoxicity against human MT4 cells assessed as reduction in cell viability after 5 days by MTT assay; format: cell-based
[6] = system: Human immunodeficiency virus 1; assay: Resistance index, ratio of EC50 for HIV-1 harboring reverse transcriptase Y181C mutant to EC50 for wild type HIV-1 NL4-3; format: functional
[7] = system: Human immunodeficiency virus type 1 reverse transcriptase (Human immunodeficiency virus 1), Q72547 [Y181I]
[8] = system: Human immunodeficiency virus 1; assay: Resistance index, ratio of EC50 for HIV-1 harboring reverse transcriptase Y188L mutant to EC50 for wild type HIV-1 NL4-3; format: functional
[9] = system: Human immunodeficiency virus 1; assay: Resistance index, ratio of EC50 for HIV-1 harboring reverse transcriptase K103N mutant to EC50 for wild type HIV-1 NL4-3; format: functional
[10] = system: Human immunodeficiency virus 1; assay: Antiviral activity against HIV-1 harboring reverse transcriptase K103N mutant infected in human MT4 cells assessed as inhibition of virus-induced cytopathic effect after 5 days by MTT assay; format: functional, organism-based; details: Human immunodeficiency virus 1, MT4, 120 h
[11] = system: Human immunodeficiency virus type 1 reverse transcriptase (Human immunodeficiency virus 1), Q72547 [L100I]
[12] = system: Human immunodeficiency virus 1; assay: Resistance index, ratio of ID50 for recombinant HIV-1 His-tagged reverse transcriptase p66/p51 Y181I mutant to ID50 for recombinant wild type HIV-1 reverse transcriptase His-tagged p66/p51
[13] = system: Human immunodeficiency virus type 1 reverse transcriptase (Human immunodeficiency virus 1), Q72547 [K103N]
Description: Inhibition of recombinant HIV-1 His-tagged reverse transcriptase p66/p51 K103N mutant expressed in Escherichia coli assessed as reduction in [3H]dTTP incorporation using poly(rA)/oligo(dT) as template/primer after 20 mins by scintillation counting analysis

[14] = system: Human immunodeficiency virus 1; assay: Resistance index, ratio of ID50 for recombinant HIV-1 His-tagged reverse transcriptase p66/p51 L100I mutant to ID50 for recombinant wild type HIV-1 reverse transcriptase His-tagged p66/p51
[15] = Therapeutic index, ratio of CC50 for human MT4 cells to EC50 for HIV-1 NL4-3 infected in human MT4 cells; format: toxicity, cell-based; details: read-out: Ratio CC50/EC50
[16] = system: Human immunodeficiency virus 1; assay: Resistance index, ratio of ID50 for recombinant HIV-1 His-tagged reverse transcriptase p66/p51 K103N mutant to ID50 for recombinant wild type HIV-1 reverse transcriptase His-tagged p66/p51

Row | SMILES | ID50 [1] [nM] | pEC50 [2] | pEC50 [3] | pEC50 [4] | CC50 at 120 h [5] [nM] | Ratio EC50 [6] | ID50 [7] [nM] | Ratio EC50 [8] | Ratio EC50 [9] | pEC50 [10] | ID50 [11] [nM] | Ratio [12] | ID50 [13] [nM] | Ratio [14] | selectivity ratio [15] | Ratio [16]
1 | Cc1c([C@H](C)c2c(F)cccc2F)nc(SC2CCCC2)[nH]c1=O | 5 | 7.96 | 9.52 | 6.85 | 55600 | 37 | 150 | 467 | 3 | 9.00 | 90 | 30 | 10 | 18 | 185000 | 2
2 | CCC(c1nc(SC(C)C)[nH]c(=O)c1C)c1c(F)cccc1Cl (stereo not drawn) | 6 | – | – | – | > 3000 | – | – | – | – | < 5.52 | 120 | – | 420 | – | > 36 | –
3 | CCCN(C)c1nc(C(OC)c2c(F)cccc2F)c(C)c(=O)[nH]1 (stereo not drawn) | 35 | 6.74 | 8.30 | 6.64 | > 77800 | 20 | 1200 | 26 | – | 7.51 | 1400 | 34 | 150 | 40 | > 15600 | 4
4 | CO[C@@H](c1nc(SC(C)C)[nH]c(=O)c1C)c1c(F)cccc1Cl | 2 | 9.05 | 10.05 | 9.00 | > 65000 | 10 | 1100 | 11 | 10 | 9.22 | 400 | 550 | 35 | 200 | > 722000 | 17
5 | CCCN(C)c1nc([C@@H](OC)c2c(Cl)cccc2Cl)c(C)c(=O)[nH]1 | 177 | 6.73 | 7.82 | 6.42 | 45200 | 12 | 8700 | 25 | 12 | 6.73 | 4300 | 49 | 438 | 24 | 3010 | 2
6 | COC(c1nc(NC2CCCC2)[nH]c(=O)c1C)c1c(F)cccc1Cl (stereo not drawn) | 40 | 6.41 | 8.15 | 5.43 | 70300 | 56 | 1500 | 529 | 24 | 6.77 | 1100 | 37 | 120 | 27 | 10000 | 3
7 | CCC(C)Sc1nc(C(OC)c2c(Cl)cccc2Cl)c(C)c(=O)[nH]1 (stereo not drawn) | 15 | 5.55 | 9.05 | 5.24 | 32800 | 3111 | > 40000 | 6444 | 856 | 6.11 | 5200 | – | 3700 | 347 | 36400 | 247
8 | CCCN(C)c1nc([C@H](OC)c2c(Cl)cccc2Cl)c(C)c(=O)[nH]1 | 8 | 8.52 | 9.40 | 8.05 | 65000 | 7 | 340 | 22 | 5 | 8.70 | 150 | 42 | 16 | 19 | 162000 | 2
9 | CCCN(C)c1nc(C(OC)c2c(F)cccc2Cl)c(C)c(=O)[nH]1 (stereo not drawn) | 26 | 7.01 | 8.40 | 6.92 | > 74100 | 24 | 1100 | 30 | 3 | 7.92 | 950 | 42 | 288 | 36 | > 18500 | –
10 | CCCNc1nc(C(OC)c2c(F)cccc2Cl)c(C)c(=O)[nH]1 (stereo not drawn) | 65 | 6.03 | 8.05 | 5.30 | 77400 | 104 | 2800 | 555 | 17 | 6.82 | 1700 | 43 | 540 | – | 8600 | 8
11 | COC(c1nc(NC(C)C)[nH]c(=O)c1C)c1c(Cl)cccc1Cl (stereo not drawn) | 340 | 5.24 | 7.02 | 4.91 | 62500 | 60 | 7800 | 127 | 31 | 5.52 | 3800 | 23 | 5200 | 11 | 651 | 15
12 | CCC(C)Sc1nc(C(CC)c2c(F)cccc2Cl)c(C)c(=O)[nH]1 (stereo not drawn) | 2 | – | – | – | > 3000 | – | – | – | – | < 5.52 | 120 | – | 450 | – | > 56 | –
13 | CCC(c1nc(SC2CCCC2)[nH]c(=O)c1C)c1c(F)cccc1Cl (stereo not drawn) | 4 | – | – | – | > 3000 | – | – | – | – | < 5.52 | 68 | – | 340 | – | > 5 | –
14 | COC(c1nc(SC(C)C)[nH]c(=O)c1C)c1c(Cl)cccc1Cl (stereo not drawn) | 59 | 5.49 | 8.40 | 5.14 | 51700 | 800 | > 40000 | 1800 | 475 | 5.72 | 7900 | – | 9300 | 134 | 12900 | 158
15 | CO[C@H](c1nc(SC(C)C)[nH]c(=O)c1C)c1c(F)cccc1Cl | 77 | 5.87 | 7.46 | 5.42 | > 40500 | – | 5800 | 75 | – | 6.42 | 12300 | 75 | 950 | 160 | > 1160 | 12
16 | COC(c1nc(NC(C)C)[nH]c(=O)c1C)c1c(F)cccc1Cl (stereo not drawn) | 110 | 5.85 | 7.54 | 5.07 | > 77400 | 48 | 3200 | 293 | 21 | 6.21 | 1900 | 29 | 1600 | 17 | > 2670 | 14
17 | COC(c1nc(NC2CCCC2)[nH]c(=O)c1C)c1c(Cl)cccc1Cl (stereo not drawn) | 56 | 5.85 | 8.00 | 5.27 | 34000 | 140 | 2400 | 540 | 84 | 6.08 | 1900 | 43 | 540 | 34 | 3400 | 10
18 | COC(c1nc(SC2CCCC2)[nH]c(=O)c1C)c1c(Cl)cccc1Cl (stereo not drawn) | 95 | 5.40 | 8.10 | 5.14 | 29300 | 500 | > 40000 | 900 | 362 | 5.54 | 8400 | – | 12400 | 88 | 3660 | 131
19 | Cc1c(C(C)c2c(F)cccc2F)nc(SC(C)C)[nH]c1=O (stereo not drawn) | – | – | – | – | > 3000 | – | – | – | – | – | – | – | – | – | > 3000 | –
20 | Cc1c([C@@H](C)c2c(F)cccc2F)nc(SC2CCCC2)[nH]c1=O | 155 | 5.89 | 7.96 | 5.09 | 35600 | 116 | 4800 | 745 | 26 | 6.55 | 2700 | 31 | 540 | 17 | 3240 | 3
